Test results published in article PMC9760738, “Pharmacokinetics, absorption, distribution, metabolism and excretion of the MEK inhibitor zapnometinib in rats” (Frontiers in Pharmacology, 2022).
Where two headings read alike, the source gives them in different places.

Assays:
[1] = set-up: method as in Wabnitz et al., 2004; settings: rat; ref Wabnitz et al., 2004; cited from earlier work
[2] = set-up: method as in Wabnitz et al., 2004; settings: monkey; ref Wabnitz et al., 2004; cited from earlier work
MEK = system: MEK; set-up: method as in Lorusso et al., 2005; settings: ref Lorusso et al., 2005; read-out: 50% inhibitory concentration (IC50); cited from earlier work
[3] = Metabolite profiling of pooled feces extracts by radio-HPLC (Group 2); assay type: in vivo, rat
Description: (§1) Metabolite profiling was performed by HPLC analysis according to the company’s SOP of plasma (Group 3), urine (Group 2) and feces (Group 2) samples. Briefly, for metabolite profiling and identification, radioactivity (cpm) was measured in HPLC eluent fractions that had previously been collected at 12 s intervals for the duration of the run (65 min) into 96-well Deep Well LumaPlates and dried in a centrifugal evaporator. A Microbeta2 scintillation counter was used to count each plate, with wells simultaneously counted for 2 min, after an initial 5 min delay. A subsample of plasma was analyzed (ca 2 ml) taken from individual animals to provide representative samples, for each sex, at 2, 8 and 168 h post dose (n = 6). Equal proportions of the total urine weight voided from Group 2 animals was pooled to provide representative samples for each sex at 0–6 h, 6–24 h and 24–48 h post dose (n = 6). Equal proportions of the total feces homogenate generated from the samples voided by the three rats (Group 2) were pooled to provide representative samples for each sex at 0–24 and 24–48 h post dose ([…]). Sample preparation was carried out due to the company’s SOPs (see Supplementary Methods). The extractability was ≥95.0% (95.0–100%) TRR (Total Radioactive Residue) for plasma and ≥88.3% (88.3%–91.3%) TRR for feces. As reference, a standard solution of zapnometinib (0.1 mg/ml in acetonitrile) was used. To assess HPLC method suitability, a column recovery was assessed on each representative sample (one per matrix). The recovery of radioactivity from the HPLC column was determined by collecting the column eluent, following an injection of a representative sample (one per matrix), and determining the radioactive content by submitting aliquots for LSC analysis. The results of these analyses were between 93.8%–105.1% column recoveries.
Next, radioactive metabolic components of zapnometinib in urine, plasma and feces extracts were isolated and profiled. The components were quantified by fraction collection/scintillation analysis, as appropriate to the radioactivity concentrations. Mass spectroscopy was used to propose identities of the major circulatory and excreted metabolites, and to correlate the metabolites detected in the different matrices. Components identified by LC-MS/MS were related to the quantified HPLC analysis by comparison of related radiochromatograms and comparison of elution order. Representative HPLC radiochromatograms of pooled feces extracts collected during 0–24 and 24–48 h post dose from male and female rats (which reveal the main metabolites) were qualitatively similar with some minor sex differences (Figure 3). […]
times with the following solvents following the same procedure: Extract 2 – Acetonitrile/methanol 4:1 (v/v); Extract 3 – Acetonitrile/Water 1:1 (v/v). Duplicate weighed aliquots of each supernatant (ca 0.1 mL) were mixed directly with Ultima Gold scintillation cocktail for measurement of radioactivity concentrations. The extracted residue was allowed to air dry and the total weight was recorded. Duplicate weighed portions (ca 0.05g) were taken for radioassay after oxidation. The extracts were combined and concentrated under a constant stream of nitrogen gas to near dryness and reconstituted in acetonitrile/0.1% aqueous formic acid, 1:1 (v/v) by vortex mixing, sonication and centrifugation at 10000 × g for 5 min at 4°C.
The concentrates were weighed, and duplicate weighed aliquots (0.025 – 0.05 mL) taken for measurement of radioactivity to calculate recovery following concentration. An aliquot of each concentrated extract was injected into the HPLC. […]
(100 mL) in purified water (600 mL) and methanol (300 mL). After measurement of total sample weight (as appropriate), replicate portions of diluted dose solutions (ca 0.1 mL), plasma (ca 0.05 – 0.25 mL), urine (ca 0.05 – 0.25 mL), expired air trap solution (ca 1 mL) and cage wash (ca 1 mL) were mixed directly with Ultima Gold scintillation cocktail (5 mL; 15 mL for […]

[4] = Metabolite profiling of plasma extracts by radio-HPLC (Group 3); assay type: in vivo, rat; settings: male plasma
Description: as §1
Next, radioactive metabolic components of zapnometinib in urine, plasma and feces extracts were isolated and profiled. The components were quantified by fraction collection/scintillation analysis, as appropriate to the radioactivity concentrations. Mass spectroscopy was used to propose identities of the major circulatory and excreted metabolites, and to correlate the metabolites detected in the different matrices. Components identified by LC-MS/MS were related to the quantified HPLC analysis by comparison of related radiochromatograms and comparison of elution order. Representative HPLC radiochromatograms of pooled feces extracts collected during 0–24 and 24–48 h post dose from male and female rats (which reveal the main metabolites) were qualitatively similar with some minor sex differences (Figure 3).

Amount in pooled feces extracts ([3]; 0-24 hours, female rats)	Amount in pooled feces extracts ([3]; 0-24 hours, male rats)	Amount in pooled feces extracts ([3]; 24-48 hours, female rats)	Amount in pooled feces extracts ([3]; Total (0-48 hours), female rats)	Amount in pooled feces extracts ([3]; Total (0-48 hours), male rats)	Amount detected in plasma by mass spectrometry [4]	Structure (SMILES)	Renal elimination [1]	Renal elimination [2]	IC50 (MEK)
						O=C(NOCC1CC1)c1ccc(F)c(F)c1Nc1ccc(I)cc1Cl [CI-1040, 2-(2-chloro-4-iodo-phenylamino)-Ncyclopropylmethoxy-3,4-difluoro-benzamide]	< 5 % of dose	< 5 % of dose	[…]
16.10 % Dose	4.21 % Dose	2.48 % Dose	18.58 % Dose	4.21 % Dose	trace amounts	CC(C)[C@H](NC(=O)c1ccc(F)c(F)c1Nc1ccc(I)cc1Cl)C(=O)O [M3]			
